Measured values published in patent US6528517B1, “Synthesis of quinobenzoxazine analogues with topoisomerase II and quadruplex interactions for use as antineoplastic agents” (Board of Regents, The University of Texas System, priority 1998, dated 2003).

Tests used:
Raji lymphoma = test: Cancer cell growth inhibition assay (MTT); format: cell-based, human
Experimental: (§1) Exponentially growing cells in 0.1 ml medium were seeded on Day 0 in 96-well microtiter plates. On Day 1, 0.1-ml aliquots of medium containing graded concentrations test agent were added in duplicate to the cell plates. After incubation at 37° C. in a humidified incubator, the plates were centrifuged briefly (1-2 min at 1000 rpm), and 100 μl of the growth medium was removed. Cell cultures were incubated with 50 μl of 3-(4,5-dimethylthiazyl-2-yl)-2,5-diphenyltetrazolium bromide MTT, 1 mg/ml in Dubecco's PBS for 4 h at 37° C. The resulting purple formazan precipitate was solubilized with 200 μl of 0.4 N HCl in isopropyl alcohol. Absorbance was quantitated using a Bio-Rad Model 3550 microplate reader at a test wavelength of 570 nm and a reference wavelength of 630 nm. Absorbance values were transferred to a 486 personal computer, and the IC50 values were determined using the computer program EZ-ED50 (Chen et al., 1993).

HT-29 colon = test: Cancer cell growth inhibition assay (MTT); format: cell-based, human
Experimental: as §1

MDA-231 breast = test: Cancer cell growth inhibition assay (MTT); format: cell-based, human
Experimental: as §1

H226 non-small-cell lung = test: Cancer cell growth inhibition assay (MTT); format: cell-based, human
Experimental: as §1

DU-145 prostate = test: Cancer cell growth inhibition assay (MTT); format: cell-based, human
Experimental: as §1

B16 melanoma = test: Cancer cell growth inhibition assay (MTT); format: cell-based, murine
Experimental: as §1

human topoisomerase II = molecular target: T1, human topoisomerase II (Homo sapiens, UniProt P11388); test: Decatenation assay (catenated to decatenated KDNA); format: biochemical; conditions: drug concentration that inhibits 50% of conversion of catenated to decatenated KDNA; read-out: topoisomerase II inhibition IC50
T1 construct: purchased TopoGEN, Inc
T1 sequence (P11388 whole entry): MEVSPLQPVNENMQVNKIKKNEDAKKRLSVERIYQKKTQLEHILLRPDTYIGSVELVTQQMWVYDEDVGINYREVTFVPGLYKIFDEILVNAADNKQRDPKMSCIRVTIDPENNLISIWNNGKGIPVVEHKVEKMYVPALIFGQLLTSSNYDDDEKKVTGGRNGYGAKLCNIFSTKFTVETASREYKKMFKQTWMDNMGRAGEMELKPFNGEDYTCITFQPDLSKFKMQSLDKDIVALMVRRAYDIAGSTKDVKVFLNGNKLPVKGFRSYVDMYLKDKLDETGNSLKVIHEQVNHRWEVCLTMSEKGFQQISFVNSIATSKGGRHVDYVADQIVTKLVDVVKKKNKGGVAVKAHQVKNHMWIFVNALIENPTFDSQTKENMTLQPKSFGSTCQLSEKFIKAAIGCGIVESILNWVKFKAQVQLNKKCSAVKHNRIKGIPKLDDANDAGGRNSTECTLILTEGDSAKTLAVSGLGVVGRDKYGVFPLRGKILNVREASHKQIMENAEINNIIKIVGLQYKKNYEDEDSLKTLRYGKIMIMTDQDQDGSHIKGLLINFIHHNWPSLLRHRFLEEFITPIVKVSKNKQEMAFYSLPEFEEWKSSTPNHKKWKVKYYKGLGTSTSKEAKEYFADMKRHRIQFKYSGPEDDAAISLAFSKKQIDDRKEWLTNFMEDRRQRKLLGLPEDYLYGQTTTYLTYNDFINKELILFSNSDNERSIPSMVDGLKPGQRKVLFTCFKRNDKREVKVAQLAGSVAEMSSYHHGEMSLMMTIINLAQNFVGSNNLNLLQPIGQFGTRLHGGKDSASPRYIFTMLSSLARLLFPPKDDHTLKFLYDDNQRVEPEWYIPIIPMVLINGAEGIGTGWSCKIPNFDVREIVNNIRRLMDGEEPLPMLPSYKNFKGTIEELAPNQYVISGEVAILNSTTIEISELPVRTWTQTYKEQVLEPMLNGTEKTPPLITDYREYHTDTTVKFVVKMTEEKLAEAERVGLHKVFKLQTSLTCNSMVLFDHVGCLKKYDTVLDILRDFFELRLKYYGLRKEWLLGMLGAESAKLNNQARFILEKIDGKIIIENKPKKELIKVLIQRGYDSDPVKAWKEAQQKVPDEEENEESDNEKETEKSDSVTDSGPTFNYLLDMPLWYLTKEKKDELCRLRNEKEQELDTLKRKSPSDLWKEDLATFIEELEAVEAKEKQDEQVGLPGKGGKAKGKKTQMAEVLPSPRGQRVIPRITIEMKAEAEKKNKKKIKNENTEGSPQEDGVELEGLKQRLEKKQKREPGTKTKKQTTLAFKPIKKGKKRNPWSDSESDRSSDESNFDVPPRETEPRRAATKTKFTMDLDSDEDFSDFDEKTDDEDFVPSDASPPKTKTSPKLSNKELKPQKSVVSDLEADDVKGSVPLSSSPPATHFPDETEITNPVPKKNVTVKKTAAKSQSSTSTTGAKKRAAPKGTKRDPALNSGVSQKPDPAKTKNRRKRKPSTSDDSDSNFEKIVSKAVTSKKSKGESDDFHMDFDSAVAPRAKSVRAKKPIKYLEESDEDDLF
Experimental: Kinetoplast DNA (KDNA), human topoisomerase II (170 KDa form), and DNA Unwinding Kit including supercoiled pHOT1 DNA, relaxed DNA marker, buffers, and human topoisomerase I were purchased from TopoGEN, Inc. Agarose was purchased from Fisher. Quinobenzoxazine A-62176 (S-enantiomer) was provided by Abbott Laboratories or prepared by published procedure (Chu and Maleczka, Jr., 1987).
0.25 μg of KDNA was incubated with various concentrations of the quinobenzoxazines in a 20-μl reaction mixture containing 50 mM Tris-HCl (pH 8), 120 mM KCl, 10 mM MgCl2, and 0.5 mM each of ATP, dithiothreitol, and […] BSA for 10 min. Two units of human topoisomerase II (170 KDa form) were added to the mixture, which was then incubated at 37° C. for 30 min. The reaction was terminated with 0.1 volume of stop buffer (5% sarkosyl, 0.025% bromophenol blue, and 50% glycerol). The decatenation products were analyzed on 1% agarose gels run with 0.5 μg/ml ethidium bromide. The gels were scanned by FluoroImager and analyzed by ImageQuaNT software (Molecular Dynamics).

human telomerase = test: Telomerase inhibition assay (HeLa cell extract); format: biochemical
Experimental: The assay used crude HeLa cell extract as the source of human telomerase. It measures the incorporation of ^32P-labeled dGTP into the primer extension of human telomere synthesis (Sun et al., 1998). […] Specific examples of such dual-acting compounds include compounds 2b and 2a (FIG. 3).
The assay was performed by using 5′-end biotinylated d[TTAGGG]3 as the telomere primer. Reaction mixtures (20 μl) containing 5 μl cell lysate (S-100), 50 mM Tris-OAc (pH 8.5), 50 mM K-OAc, 1 mM MgCl2, 5 mM BME, 1 mM spermidine, 1 μM telomere primer, 1.5 μM [α-^32P]-dGTP (800 Ci/mmol), 1 mM dATP, and 1 mM dTTP were incubated at 37° C. for 1 hr, and the reactions were terminated by adding 20 μl of […] streptavidin-coated Dynabeads suspension containing 10 mM Tris-HCl (pH 7.5), 1 mM EDTA, 2M KCl, and a 500 cpm biotinylated internal control. Streptavidin-coated Dynabeads bind selectively to the desired target (5′-biotinylated primer), forming a magnetic bead-targeted complex. The complex was separated from the suspension using a Dynal MPC magnet and washed several times with 2×SSC buffer containing 0.1% SDS to eliminate [α-^32P]-dGTP background. Telomerase reaction products were separated from the magnetic beads by protein denaturation with 5.7 M guanidine-HCl at 90° C. for 30 min. After ethanol precipitation, products were resolved on denaturating 10% polyacrylamide gel.

supercoiled pHOT1 DNA = test: DNA unwinding assay; format: biochemical; conditions: concentration shifting topoisomers to the middle position between relaxed and supercoiled bands
Experimental: A 22 μl mixture of 0.25 μg of supercoiled pHOT1 DNA, 5 units of topoisomerase I in topoisomerase I buffer (provided with the kit) was incubated at 37° C. for 30 min. Two μl of various concentrations of drug was added, and the incubation was continued for another 30 min. The reactions were terminated by addition of SDS to 1%. Proteinase K was added to the reaction mixtures to ca. 50 μg/ml, and the reaction mixtures were incubated for 15-20 min at 56° C. After adding 0.1 volume of 10×gel loading buffer, the reaction mixtures were extracted with an equal volume of CIA (Chloroform:isoamyl Alcohol; 24:1). The samples were loaded on an 1% agarous gel that was cast in TPE buffer (36 mM Tris-HCl, pH 7.8, 1 mM EDTA, 30 mM NaH2PO4) and 0.2 μg/ml Chloroquine. The gel was run in TPE buffer at room temperature at 10 volts for 20 h, destained in water for 15 min, stained in 0.05 μg/ml ethidium bromide for 15 min, and destained again in water for 15 min. The gel was then photographed, scanned by FluoroImager, and analyzed by ImageQuaNT software (Molecular Dynamics).

SMILES: NC1CCN(c2c(F)cc3c(=O)c(C(=O)O)cn4c3c2Oc2ccc3ccccc3c2-4)C1 (racemic) [Compound 1a, 1-(3-Aminopyrrolidin-1-yl)-2-fluoro-4-oxo-4H-pyrido[3,2,1-k,l]-benzo[h]-phenoxazine-5-carboxylic Acid]
- IC50 (Raji lymphoma): 86 ± 6 nM
- IC50 (HT-29 colon): 180 ± 10 nM
- IC50 (MDA-231 breast): 150 ± 40 nM
- IC50 (H226 non-small-cell lung): 140 ± 10 nM
- IC50 (DU-145 prostate): 200 ± 30 nM
- IC50 (B16 melanoma): 440 ± 60 nM
- IC50 (human topoisomerase II): 770 nM

SMILES: Cl.NC1CCN(c2c(F)cc3c(=O)c(C(=O)O)cn4c3c2Oc2c-4ccc3ccccc23)C1 (racemic) [Compound 2a, 1-(3-Aminopyrrolidin-1-yl)-2-fluoro-4-oxo-4H-pyrido[3,2,1-k,l]-benzo[f]-phenoxazine-5-carboxylic Acid]
- IC50 (Raji lymphoma): 18 ± 1 nM
- IC50 (HT-29 colon): 30 ± 3 nM
- IC50 (MDA-231 breast): 27 ± 2 nM
- IC50 (H226 non-small-cell lung): 22 ± 2 nM
- IC50 (DU-145 prostate): 17 ± 7 nM
- IC50 (B16 melanoma): 40 ± 4 nM
- IC50 (human topoisomerase II): 550 nM
- telomerase inhibition (qualitative) (human telomerase): dual-acting

SMILES: NC1CCN(c2c(F)cc3c(=O)c(C(=O)O)cn4c3c2Oc2cc3ccccc3cc2-4)C1 (racemic) [Compound 3a, 1-(3-Aminopyrrolidin-1-yl)-2-fluoro-4-oxo-4H-pyrido[3,2,1-k,l]-benzo[g]-phenoxazine-5-carboxylic Acid]
- IC50 (Raji lymphoma): 38 ± 6 nM
- IC50 (HT-29 colon): 28 ± 5 nM
- IC50 (MDA-231 breast): 23 ± 4 nM
- IC50 (H226 non-small-cell lung): 4 ± 2 nM
- IC50 (DU-145 prostate): 25 ± 9 nM
- IC50 (B16 melanoma): 100 ± 10 nM
- IC50 (human topoisomerase II): 770 nM

SMILES: Cl.NC1CCN(c2c(F)cc3c(=O)c(C(=O)O)cn4c3c2Oc2ccc3ccccc3c2-4)C1 (stereo not shown) [Compound 1b, 1-(3-Aminopyrrolidin-1-yl)-2-fluoro-4-oxo-4H-pyrido[3,2,1-k,l]-benzo[h]-phenoxazine-5-carboxylic Acid]
- IC50 (Raji lymphoma): 160 ± 70 nM
- IC50 (HT-29 colon): 360 ± 40 nM
- IC50 (MDA-231 breast): 350 ± 60 nM
- IC50 (H226 non-small-cell lung): 2400 ± 100 nM
- IC50 (DU-145 prostate): 360 ± 120 nM
- IC50 (B16 melanoma): 680 ± 50 nM
- IC50 (human topoisomerase II): 1220 nM
- DNA unwinding concn (supercoiled pHOT1 DNA): 35 µM

SMILES: Cl.NC1CCN(c2c(F)cc3c(=O)c(C(=O)O)cn4c3c2Oc2ccc3ccccc3c2-4)C1 (stereo not shown) [Compound 1c, 1-(3-Aminopyrrolidin-1-yl)-2-fluoro-4-oxo-4H-pyrido[3,2,1-k,l]-benzo[h]-phenoxazine-5-carboxylic Acid]
- IC50 (Raji lymphoma): 82 ± 8 nM
- IC50 (HT-29 colon): 270 ± 40 nM
- IC50 (MDA-231 breast): 190 ± 40 nM
- IC50 (H226 non-small-cell lung): 130 ± 10 nM
- IC50 (DU-145 prostate): 140 ± 10 nM
- IC50 (B16 melanoma): 130 ± 20 nM
- IC50 (human topoisomerase II): 720 nM
- DNA unwinding concn (supercoiled pHOT1 DNA): 19 µM

SMILES: Cl.NC1CCN(c2c(F)cc3c(=O)c(C(=O)O)cn4c3c2Oc2c-4ccc3ccccc23)C1 (stereo not shown) [Compound 2c, 1-(3-Aminopyrrolidin-1-yl)-2-fluoro-4-oxo-4H-pyrido[3,2,1-k,l]-benzo[f]-phenoxazine-5-carboxylic Acid]
- IC50 (Raji lymphoma): 20 ± 4 nM
- IC50 (HT-29 colon): 51 ± 6 nM
- IC50 (MDA-231 breast): 84 ± 7 nM
- IC50 (H226 non-small-cell lung): 27 ± 4 nM
- IC50 (DU-145 prostate): 64 ± 7 nM
- IC50 (B16 melanoma): 180 ± 20 nM
- IC50 (human topoisomerase II): 490 nM
- DNA unwinding concn (supercoiled pHOT1 DNA): 10 µM
